Experiments:
Coagulation factor X [1] = biological target: T1, Coagulation factor X (Homo sapiens, UniProt P00742); assay: Inhibition of human F10a by fluorescence assay
Plasma = assay: Anticoagulant activity in human plasma assessed as drug level causing 1.5 times prolongation of prothrombin time; format: functional
Albumin = Albumin (Homo sapiens, UniProt P02768); assay: Binding affinity to human serum albumin; format: ADME; conditions: isolated protein
[2] = Half life in Sprague-Dawley rat; format: ADME, organism-based; conditions: in vivo
[3] = Plasma clearance in Sprague-Dawley rat; format: ADME, organism-based
[4] = Volume of distribution at steady state in Sprague-Dawley rat; format: ADME, organism-based; conditions: in vivo, read-out: Vdss
[5] = Oral bioavailability in Sprague-Dawley rat; format: ADME, organism-based; conditions: in vivo
Coagulation factor X [6] = biological target: T1, Coagulation factor X; assay: Inhibition of human F10a by chromogenic assay

T1 sequence (P00742 41-179 limits assumed): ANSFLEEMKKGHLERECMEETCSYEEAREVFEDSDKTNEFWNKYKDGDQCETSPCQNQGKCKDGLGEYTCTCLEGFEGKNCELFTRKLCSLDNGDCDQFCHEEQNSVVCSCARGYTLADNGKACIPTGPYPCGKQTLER
T1 sequence (P00742 235-488 limits assumed): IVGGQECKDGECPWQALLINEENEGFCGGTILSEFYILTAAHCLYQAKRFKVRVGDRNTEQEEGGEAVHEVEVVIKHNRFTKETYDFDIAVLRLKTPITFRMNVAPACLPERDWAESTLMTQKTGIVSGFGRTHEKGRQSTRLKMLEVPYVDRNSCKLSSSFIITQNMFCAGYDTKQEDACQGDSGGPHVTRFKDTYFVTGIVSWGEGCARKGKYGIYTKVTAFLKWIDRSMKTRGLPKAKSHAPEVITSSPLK
Sequence of Albumin (P02768 whole entry): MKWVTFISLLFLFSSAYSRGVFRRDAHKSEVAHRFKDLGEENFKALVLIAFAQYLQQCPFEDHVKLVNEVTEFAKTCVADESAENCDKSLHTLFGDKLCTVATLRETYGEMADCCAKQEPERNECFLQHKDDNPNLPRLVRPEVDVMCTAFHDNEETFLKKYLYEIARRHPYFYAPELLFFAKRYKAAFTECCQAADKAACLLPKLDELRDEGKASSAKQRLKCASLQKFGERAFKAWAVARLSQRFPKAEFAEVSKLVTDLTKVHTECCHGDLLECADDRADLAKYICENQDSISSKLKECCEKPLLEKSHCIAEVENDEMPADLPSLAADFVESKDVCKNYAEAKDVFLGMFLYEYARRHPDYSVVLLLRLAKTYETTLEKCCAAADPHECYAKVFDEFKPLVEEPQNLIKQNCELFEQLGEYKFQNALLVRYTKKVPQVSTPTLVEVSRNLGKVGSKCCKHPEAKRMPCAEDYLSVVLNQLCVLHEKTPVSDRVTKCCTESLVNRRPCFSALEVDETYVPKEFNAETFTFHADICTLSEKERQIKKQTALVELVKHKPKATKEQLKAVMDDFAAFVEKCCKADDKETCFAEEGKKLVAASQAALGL

Ki (Coagulation factor X [1]) [nM]	Structure (SMILES)	Activity (Plasma) [µM]	further results
2	CS(=O)(=O)c1ccccc1-c1ccc(N2CCC(NS(=O)(=O)c3cc4nc(Cl)ccc4s3)C2=O)c(F)c1 (stereo not given)	> 100	
6	O=C1C(NS(=O)(=O)/C=C/c2ccc(Cl)s2)CCN1c1ccc(-c2ccccc2C(F)(F)F)cn1 (stereo not given)	>100	
< 0.4	CS(=O)(=O)c1ccccc1-c1ccc(N2CCC(NS(=O)(=O)/C=C/c3ccc(Cl)cc3)C2=O)c(F)c1 (stereo not given)	30	half-life [2]: 48 min; clearance [3]: 9.2 mL/min/kg; Vd [4]: 0.5 L/kg; bioavailability [5]: 41%
1.8	N#Cc1ccccc1-c1ccc(N2CCC(NS(=O)(=O)/C=C/c3ccc(Cl)s3)C2=O)nc1 (stereo not given)	73.7	
180	CC(C)Oc1ccccc1-c1ccc(N2CCC(NS(=O)(=O)/C=C/c3ccc(Cl)s3)C2=O)nc1 (stereo not given)	>100	
6.2	CS(=O)(=O)c1ccccc1-c1ccc(N2CCC(NS(=O)(=O)c3cc4cc(Cl)ccc4o3)C2=O)c(F)c1 (stereo not given)	>100	
< 0.3	CNS(=O)(=O)c1ccccc1-c1ccc(N2CCC(NS(=O)(=O)/C=C/c3ccc(Cl)s3)C2=O)nc1 (stereo not given)	25	
1.1	Cn1ccnc1-c1ccc(N2CCC(NS(=O)(=O)c3ccc4cc(Cl)ccc4c3)C2=O)c(F)c1 (stereo not given)	54.5	
15.5	Cn1cnc(-c2ccc(N3CCC(NS(=O)(=O)c4ccc5cc(Cl)ccc5c4)C3=O)c(F)c2)c1 (stereo not given)	>100	
1.1	CS(=O)(=O)c1ccccc1-c1ccc(N2CCC(NS(=O)(=O)c3cc4ccc(Cl)cc4o3)C2=O)c(F)c1 (stereo not given)	>100	Activity (Albumin): 99.6%
0.1	CS(=O)(=O)c1ccccc1-c1ccc(N2CCC(NS(=O)(=O)/C=C/c3cc4ccc(Cl)cc4s3)C2=O)c(F)c1 (stereo not given)	28.7	
80	O=C1C(NS(=O)(=O)c2ccc3cc(Cl)ccc3c2)CCN1c1ccc(-c2ccccc2)cn1 (stereo not given)	>100	

Second part, the molecule before the results:

Structure (SMILES)	Ki (Coagulation factor X [1]) [nM]	Activity (Plasma) [µM]	further results
O=C1C(NS(=O)(=O)c2ccc3cc(Cl)ccc3c2)CCN1c1ccc(-c2ccoc2)cc1F (stereo not given)	74.6	>100	
CS(=O)(=O)c1ccccc1-c1ccc(N2CCC(NS(=O)(=O)/C=C/c3ccc(Cl)s3)C2=O)c(F)c1 (stereo not given)			Activity (Albumin): 97.6%
NS(=O)(=O)c1ccccc1-c1ccc(N2CCC(NS(=O)(=O)/C=C/c3ccc(Cl)s3)C2=O)nc1 (stereo not given)			Activity (Albumin): 98%
N#Cc1ncccc1-c1ccc(N2CCC(NS(=O)(=O)c3ccc4cc(Cl)ccc4c3)C2=O)c(F)c1 (stereo not given)	0.7	64.3	
O=C1C(NS(=O)(=O)c2ccc3cc(Cl)ccc3c2)CCN1c1ccc(-c2ccncc2)cc1F (stereo not given)	8.9	92.9	
CS(=O)(=O)c1ccccc1-c1ccc(N2CCC(NS(=O)(=O)/C=C/c3ccc(Cl)s3)C2=O)nc1 (stereo not given)			Activity (Albumin): 97.6%; half-life [2]: 36 min; clearance [3]: 20 mL/min/kg; Vd [4]: 0.7 L/kg; bioavailability [5]: 29%
CS(=O)(=O)Nc1ccccc1-c1ccc(N2CCC(NS(=O)(=O)/C=C/c3ccc(Cl)s3)C2=O)nc1 (stereo not given)		58.4	Activity (Albumin): 98.2%; Ki (Coagulation factor X [6]): 14 nM
CN(C)S(=O)(=O)c1ccccc1-c1ccc(N2CCC(NS(=O)(=O)/C=C/c3ccc(Cl)s3)C2=O)nc1 (stereo not given)	0.4	65.1	
CN(C)C(=O)c1ccccc1-c1ccc(N2CCC(NS(=O)(=O)/C=C/c3ccc(Cl)s3)C2=O)nc1 (stereo not given)	11.8	78.6	
CN(c1ccccc1-c1ccc(N2CCC(NS(=O)(=O)/C=C/c3ccc(Cl)s3)C2=O)nc1)S(C)(=O)=O (stereo not given)	9.1	>100	
CC(C)(C)c1ccccc1-c1ccc(N2CCC(NS(=O)(=O)/C=C/c3ccc(Cl)s3)C2=O)nc1 (stereo not given)			Ki (Coagulation factor X [6]): 2330 nM
O=C1C(NS(=O)(=O)c2ccc3cc(Cl)ccc3c2)CCN1c1ccc(-c2cccnc2)cc1F (stereo not given)	6.3	>100	
CS(=O)(=O)c1ccccc1-c1ccc(N2CCC(NS(=O)(=O)c3ccc4cc(Cl)ccc4c3)C2=O)c(F)c1 (stereo not given)			Activity (Albumin): 98.8%; half-life [2]: 54 min; clearance [3]: 20 mL/min/kg; Vd [4]: 1.1 L/kg; bioavailability [5]: 10%
O=C1C(NS(=O)(=O)c2ccc3cc(Cl)ccc3c2)CCN1c1ccc(-n2ccnc2)cc1F (stereo not given)	4.4	>100	
O=C1C(NS(=O)(=O)c2ccc3cc(Cl)ccc3c2)CCN1c1ccc(-n2cccn2)cc1F (stereo not given)	2.7	>100	
O=C1C(NS(=O)(=O)c2ccc3cc(Cl)ccc3c2)CCN1c1ccc(-c2ccccc2)cc1F (stereo not given)	215	>100	

— ChEMBL document CHEMBL1140797, “Structure and property based design of factor Xa inhibitors: pyrrolidin-2-ones with biaryl P4 motifs” (Bioorg Med Chem Lett, 2008)
